According to patent US10144732B2 (BIOGEN MA INC., priority 2014, dated 2018):
Where “and” joins values, the source holds several entries; their conditions need not be identical. Identical values can stand only once. Counter-ions that a name gives are not always drawn. Like-named read-outs stand apart in the source and are kept apart here.

Target: T1, Human ATX protein (Homo sapiens, UniProt Q13822)
T1 construct: made in house
Experiment: ATX biochemical assay (FRET, FS-3 substrate)
Details: FS-3 2 μM, ATX 1.0 μg/mL, 30 minutes preincubation, 2 hours reaction at room temperature
Summary of the method: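 FRET read-out: cleavage of FS-3 (2 μM final) unquenches fluorescein, measured at 485/538 nm after 2 h at room temperature. Before substrate addition, in-house-expressed human autotaxin (1.0 μg/mL) sat with compound for 30 min in pH 7.4 Tris/NaCl/KCl/CaCl2/MgCl2 buffer containing fatty acid free-BSA at 1 mg/mL.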

SMILES	IC50 (FRET assay, read-out: IC50)	IC50 (IC50, FRET assay)
O=C(O)C1CC2COCC(C1)N2CC(=O)N1CCc2c(C(F)(F)F)nn(Cc3ccc(Cl)cc3F)c2C1 (stereo not drawn) [Example 13-27, 9-(2-(1-(4-Chloro-2-fluorobenzyl)-3-(trifluoromethyl)-4,5-dihydro-1H-pyrazolo[3,4-c]pyridin-6(7H)-yl)-2-oxoethyl)-3-oxa-9-azabicyclo[3.3.1]nonane-7-carboxylic acid TFA salt]	–	≤ 100 nM
O=C(O)C1CC2CCC(C1)N2CC(=O)N1CCc2c(C(F)(F)F)nn(Cc3ccc(Cl)cc3F)c2C1 (stereo not drawn) [Example 13-4, 8-(2-(1-(4-Chloro-2-fluorobenzyl)-3-(trifluoromethyl)-4,5-dihydro-1H-pyrazolo[3,4-c]pyridin-6(7H)-yl)-2-oxoethyl)-8-azabicyclo[3.2.1]octane-3-carboxylic acid]	–	≤ 100 nM
O=C(C[C@H]1CC[C@@H](C(=O)O)CC1)N1CCc2c(C(F)(F)F)nn(C3CCCCC3)c2C1 [Example 7-20, cis-4-(2-(1-cyclohexyl-3-(trifluoromethyl)-4,5-dihydro-1H-pyrazolo[3,4-c]pyridin-6(7H)-yl)-2-oxoethyl)cyclohexanecarboxylic acid]	> 500 nM and ≤ 10000 nM	–
COC(=O)C1CC2CCC(C1)N2CC(=O)N1CCc2c(C(F)(F)F)nn(Cc3ccc(Cl)cc3F)c2C1 (stereo not drawn) [Example 12-4, Methyl 8-(2-(1-(4-chloro-2-fluorobenzyl)-3-(trifluoromethyl)-4,5-dihydro-1H-pyrazolo[3,4-c]pyridin-6(7H)-yl)-2-oxoethyl)-8-azabicyclo[3.2.1]octane-3-carboxylate]	–	≤ 100 nM
O=C(O)C1CN(CC(=O)N2CCc3c(C(F)(F)F)nn(Cc4ccc(F)cc4)c3C2)C1 [Example 13-18, 1-(2-(1-(4-Fluorobenzyl)-3-(trifluoromethyl)-4,5-dihydro-1H-pyrazolo[3,4-c]pyridin-6(7H)-yl)-2-oxoethyl)azetidine-3-carboxylic acid TFA salt]	≤ 100 nM	–
O=C(O)[C@H]1C2C3C[C@@H]1C(CC(=O)N1CCc4c(C(F)(F)F)nn(Cc5ccc(Cl)cc5F)c4C1)C32 (stereo partly drawn) [Example 6-16, (3R,4R)-5-(2-(1-(4-Chloro-2-fluorobenzyl)-3-(trifluoromethyl)-4,5-dihydro-1H-pyrazolo[3,4-c]pyridin-6(7H)-yl)-2-oxoethyl)tricyclo[2.2.1.02,6]heptane-3-carboxylic acid]	≤ 100 nM	–
CCOC(=O)[C@H]1CC[C@H](CC(=O)N2CCc3c(C4CC4)nn(Cc4ccc(F)cc4)c3C2)CC1 [Example 1-39, trans-Ethyl 4-(2-(3-cyclopropyl-1-(4-fluorobenzyl)-4,5-dihydro-1H-pyrazolo[3,4-c]pyridin-6(7H)-yl)-2-oxoethyl)cyclohexanecarboxylate]	≤ 100 nM	–
O=C(O[C@H]1CC[C@H](C(=O)O)CC1)N1CCc2c(C(F)(F)F)nn(Cc3ccc(Cl)cc3F)c2C1 [Example 7-10, trans-4-((1-(4-chloro-2-fluorobenzyl)-3-(trifluoromethyl)-4,5,6,7-tetrahydro-1H-pyrazolo[3,4-c]pyridine-6-carbonyl)oxy)cyclohexanecarboxylic acid]	≤ 100 nM	–
O=C(O)C1CC2CCCC(C1)N2CC(=O)N1CCc2c(C(F)(F)F)nn(Cc3ccc(F)cc3)c2C1 (stereo not drawn) [Example 13-6, 9-(2-(1-(4-Fluorobenzyl)-3-(trifluoromethyl)-4,5-dihydro-1H-pyrazolo[3,4-c]pyridin-6(7H)-yl)-2-oxoethyl)-9-azabicyclo[3.3.3.1]nonane-3-carboxylic acid]	–	≤ 100 nM
O=C(C[C@H]1CC[C@H](C(=O)O)CC1)N1CCc2c(C(F)(F)F)nn(CCC3CCCCC3)c2C1 [Example 7-22, trans-4-(2-(1-(2-cyclohexylethyl)-3-(trifluoromethyl)-4,5-dihydro-1H-pyrazolo[3,4-c]pyridin-6(7H)-yl)-2-oxoethyl)cyclohexanecarboxylic acid]	≤ 100 nM	–
O=C(C[C@H]1CC[C@H](C(=O)O)CC1)N1CCc2c(CO)nn(Cc3ccc(F)cc3)c2C1 [Example 5-45, trans-4-(2-(1-(4-Fluorobenzyl)-3-(hydroxymethyl)-4,5-dihydro-1H-pyrazolo[3,4-c]pyridin-6(7H)-yl)-2-oxoethyl)cyclohexanecarboxylic acid]	≤ 100 nM	–

Continued, in another order:

IC50 (FRET assay, read-out: IC50)	SMILES	IC50 (IC50, FRET assay)
≤ 100 nM	O=C(O)[C@H]1CC[C@@H](C(=O)N2CCc3c(C(F)(F)F)nn(Cc4ccc(F)cc4)c3C2)CC1 [Example 7-18, cis-4-(1-(4-fluorobenzyl)-3-(trifluoromethyl)-4,5,6,7-tetrahydro-1H-pyrazolo[3,4-c]pyridine-6-carbonyl)cyclohexanecarboxylic acid]	–
≤ 100 nM	CCOC(=O)[C@H]1CC[C@@H](CC(=O)N2CCc3c(C(F)(F)F)nn(Cc4ccc(Cl)cc4F)c3C2)CC1 [Example 2-2, cis-Ethyl 4-(2-(1-(4-chloro-2-fluorobenzyl)-3-(trifluoromethyl)-4,5-dihydro-1H-pyrazolo[3,4-c]pyridin-6(7H)-yl)-2-oxoethyl)cyclohexanecarboxylate]	–
≤ 100 nM	O=C(O)C12CCC(C(=O)N3CCc4c(C(F)(F)F)nn(Cc5ccc(Cl)cc5F)c4C3)(CC1)C2 [Example 5-51]	–
≤ 100 nM	O=C(O)C1CC2CN(CC(=O)N3CCc4c(C(F)(F)F)nn(Cc5ccc(Cl)cc5F)c4C3)CC2C1 (stereo not drawn) [Example 13-9, 2-(2-(1-(4-Chloro-2-fluorobenzyl)-3-(trifluoromethyl)-4,5-dihydro-1H-pyrazolo[3,4-c]pyridin-6(7H)-yl)-2-oxoethyl)octahydrocyclopenta[c]pyrrole-5-carboxylic acid TFA salt]	–
≤ 100 nM	O=C(O)C1CCC(CC(=O)N2CCc3c(C(F)(F)F)nn(Cc4ccc(C(F)(F)F)cc4)c3C2)CC1 (mixture of isomers) [Example 6-2, 4-(2-Oxo-2-(3-(trifluoromethyl)-1-(4-(trifluoromethyl)benzyl)-4,5-dihydro-1H-pyrazolo[3,4-c]pyridin-6(7H)-yl)ethyl)cyclohexanecarboxylic acid]	–
≤ 100 nM	O=C(O)CCNCC(=O)N1CCc2c(C(F)(F)F)nn(Cc3ccc(F)cc3)c2C1 [Example 13-16, 3-(2-(1-(4-Fluorobenzyl)-3-(trifluoromethyl)-4,5-dihydro-1H-pyrazolo[3,4-c]pyridin-6(7H)-yl)-2-oxoethylamino)propanoic acid TFA salt]	–
≤ 100 nM	N#Cc1nn(Cc2ccc(F)cc2)c2c1CCN(C(=O)C[C@H]1CC[C@H](C(=O)O)CC1)C2 [Example 5-46, trans-4-(2-(3-Cyano-1-(4-fluorobenzyl)-4,5-dihydro-1H-pyrazolo[3,4-c]pyridin-6(7H)-yl)-2-oxoethyl)cyclohexanecarboxylic acid]	–
≤ 100 nM	CC1CCC(CC(=O)N2CCc3c(C(F)(F)F)nn(Cc4ccc(Cl)cc4F)c3C2)CC1 (stereo not drawn) [Example 1-21, 1-(1-(4-Chloro-2-fluorobenzyl)-3-(trifluoromethyl)-4,5-dihydro-1H-pyrazolo[3,4-c]pyridin-6(7H)-yl)-2-(4-methylcyclohexyl)ethanone]	–
≤ 100 nM	COC(=O)C1CCN(CC(=O)N2CCc3c(C(F)(F)F)nn(Cc4ccc(F)cc4)c3C2)CC1 [Example 12-1, Methyl 1-(2-(1-(4-fluorobenzyl)-3-(trifluoromethyl)-4,5-dihydro-1H-pyrazolo[3,4-c]pyridin-6(7H)-yl)-2-oxoethyl)piperidine-4-carboxylate]	–
≤ 100 nM	CN1CC(CC(=O)N2CCc3c(C(F)(F)F)nn(Cc4ccc(Cl)cc4F)c3C2)C[C@@H]1C(=O)O (stereo partly drawn) [Example 10-10, (2R)-4-(2-(1-(4-chloro-2-fluorobenzyl)-3-(trifluoromethyl)-4,5-dihydro-1H-pyrazolo[3,4-c]pyridin-6(7H)-yl)-2-oxoethyl)-1-methylpyrrolidine-2-carboxylic acid TFA salt]	–
≤ 100 nM	O=C(O)CC1CCN(CC(=O)N2CCc3c(C(F)(F)F)nn(Cc4ccc(Cl)cc4F)c3C2)C1 (stereo not drawn) [Example 13-24, 2-(1-(2-(1-(4-Chloro-2-fluorobenzyl)-3-(trifluoromethyl)-4,5-dihydro-1H-pyrazolo[3,4-c]pyridin-6(7H)-yl)-2-oxoethyl)pyrrolidin-3-yl)acetic acid TFA salt]	–
≤ 100 nM	O=C(CN[C@H]1CC[C@@H](C(=O)O)CC1)N1CCc2c(C(F)(F)F)nn(Cc3ccc(F)cc3)c2C1 [Example 13-30, cis-4-(2-(1-(4-Fluorobenzyl)-3-(trifluoromethyl)-4,5-dihydro-1H-pyrazolo[3,4-c]pyridin-6(7H)-yl)-2-oxoethylamino)cyclohexanecarboxylic acid TFA salt]	–
≤ 100 nM	CC1CC(CC(=O)N2CCc3c(C(F)(F)F)nn(Cc4ccc(Cl)cc4F)c3C2)CCN1C (stereo not drawn) [Example 10-2, 1-(1-(4-Chloro-2-fluorobenzyl)-3-(trifluoromethyl)-4,5-dihydro-1H-pyrazolo[3,4-c]pyridin-6(7H)-yl)-2-(1,2-dimethylpiperidin-4-yl)ethanone TFA salt]	–
≤ 100 nM	O=C(CC1CCN(c2ccccn2)CC1)N1CCc2c(C(F)(F)F)nn(Cc3ccc(F)cc3)c2C1 [Example 18-2, 1-(1-(4-Fluorobenzyl)-3-(trifluoromethyl)-4,5-dihydro-1H-pyrazolo[3,4-c]pyridin-6(7H)-yl)-2-(1-(pyridin-2-yl)piperidin-4-yl)ethanone TFA salt]	–
≤ 100 nM	CC1CCC(Cn2nc(C(F)(F)F)c3c2CN(C(=O)C[C@H]2CC[C@H](C(=O)O)CC2)CC3)CC1 (stereo partly drawn) [Example 5-37, trans-4-(2-(1-((4-Methylcyclohexyl)methyl)-3-(trifluoromethyl)-4,5-dihydro-1H-pyrazolo[3,4-c]pyridin-6(7H)-yl)-2-oxoethyl)cyclohexanecarboxylic acid]	–
≤ 100 nM	CN1CCC(CC(=O)N2CCc3c(C(F)(F)F)nn(Cc4ccc(Cl)cc4F)c3C2)CC1(C)C (stereo not drawn) [Example 10-3, 1-(1-(4-Chloro-2-fluorobenzyl)-3-(trifluoromethyl)-4,5-dihydro-1H-pyrazolo[3,4-c]pyridin-6(7H)-yl)-2-(1,2,2-trimethylpiperidin-4-yl)ethanone TFA salt]	–
